Source: PMC11882969 (Nature Communications, 2025)
Where “and” joins values, the source holds several entries; their conditions need not be identical. Equal entries are not always repeated.

Columns and labels:
hCB1 [1] = biological target: T1, hCB1 (Homo sapiens, UniProt P21554); experiment: bioSensAll ebBRET signaling profiling, hCB1; type: cell-based; set-up: host or cells: HEK293SL cells, transient PEI transfection; settings: for Gi1 hCB1 / GoB hCB1: single replicate values, FigS6a; for Emax [95% CI]: normalized to CP-55,940; for EC50: read-out: EC50 [95% CI]
T1 sequence (P21554 whole entry): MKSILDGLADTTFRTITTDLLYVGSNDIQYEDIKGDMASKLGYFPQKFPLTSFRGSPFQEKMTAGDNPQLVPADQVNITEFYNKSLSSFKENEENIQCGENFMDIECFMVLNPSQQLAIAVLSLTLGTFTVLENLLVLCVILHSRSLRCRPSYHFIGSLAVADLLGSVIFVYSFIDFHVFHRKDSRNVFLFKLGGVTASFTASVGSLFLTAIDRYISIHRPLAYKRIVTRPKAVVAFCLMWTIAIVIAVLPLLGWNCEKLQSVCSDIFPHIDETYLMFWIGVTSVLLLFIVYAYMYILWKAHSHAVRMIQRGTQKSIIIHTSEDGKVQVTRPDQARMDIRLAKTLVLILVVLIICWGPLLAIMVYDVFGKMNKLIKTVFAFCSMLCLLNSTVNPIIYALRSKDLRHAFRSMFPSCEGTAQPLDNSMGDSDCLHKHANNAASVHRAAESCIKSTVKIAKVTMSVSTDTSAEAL

CB1 (rCB1) = CB1 (rCB1) (Rattus norvegicus, UniProt P20272); experiment: Single-point radioligand displacement screen; type: binding; settings: 10 µM, 1 µM or 300 nM by cell colour (not visible)
Sequence of CB1 (rCB1) (P20272 whole entry): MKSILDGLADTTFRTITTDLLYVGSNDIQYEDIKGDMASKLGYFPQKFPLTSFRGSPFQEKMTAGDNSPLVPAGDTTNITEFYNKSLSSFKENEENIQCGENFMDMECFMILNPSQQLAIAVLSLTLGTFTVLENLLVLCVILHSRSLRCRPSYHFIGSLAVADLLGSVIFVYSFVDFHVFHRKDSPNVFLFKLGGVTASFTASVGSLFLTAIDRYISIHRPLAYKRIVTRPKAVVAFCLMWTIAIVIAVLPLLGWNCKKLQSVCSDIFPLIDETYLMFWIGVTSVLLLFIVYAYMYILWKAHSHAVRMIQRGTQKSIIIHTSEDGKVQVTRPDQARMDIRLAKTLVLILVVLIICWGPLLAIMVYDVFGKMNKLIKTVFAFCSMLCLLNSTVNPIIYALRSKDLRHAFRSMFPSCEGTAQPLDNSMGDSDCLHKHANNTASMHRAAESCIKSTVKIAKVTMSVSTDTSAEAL

hCB1 [2] = biological target: T1, hCB1; experiment: Tango β-arrestin-2 recruitment, HTLA cells, CB1R; type: cell-based; set-up: expressed in transfected cells; host or cells: HTLA cells (gift of R. Axel), transient transfection

COC(=O)[C@@H]1[C@@H]2CCC[C@@H]2CN1C(=O)c1cc(C)n(-c2cccc(Cl)c2)n1 (racemic) [‘10010]
Gi1 hCB1 (hCB1 [1]; Log [Compound] (M) -9.61989): 0.8444 | GoB hCB1 (hCB1 [1]; Log [Compound] (M) -9.61989): -4.38 | Gi1 hCB1 (hCB1 [1]; Log [Compound] (M) -10.0969): 1.662 | GoB hCB1 (hCB1 [1]; Log [Compound] (M) -10.0969): -4.057 | Gi1 hCB1 (hCB1 [1]; Log [Compound] (M) -10.5529): 2.648 | GoB hCB1 (hCB1 [1]; Log [Compound] (M) -10.5529): 1.212 | Gi1 hCB1 (hCB1 [1]; Log [Compound] (M) -11.0177): 0.9524 | GoB hCB1 (hCB1 [1]; Log [Compound] (M) -11.0177): -2.384 | Gi1 hCB1 (hCB1 [1]; Log [Compound] (M) -11.4949): 2.417 | GoB hCB1 (hCB1 [1]; Log [Compound] (M) -11.4949): -4.326 | Gi1 hCB1 (hCB1 [1]; Log [Compound] (M) -11.9208): 1.261 | GoB hCB1 (hCB1 [1]; Log [Compound] (M) -11.9208): -0.06441 | Gi1 hCB1 (hCB1 [1]; Log [Compound] (M) -12.3979): 1.908 | GoB hCB1 (hCB1 [1]; Log [Compound] (M) -12.3979): 2.4173 | Gi1 hCB1 (hCB1 [1]; Log [Compound] (M) -12.8861): 1.322 | GoB hCB1 (hCB1 [1]; Log [Compound] (M) -12.8861): 1.59 | Gi1 hCB1 (hCB1 [1]; Log [Compound] (M) -13): 2.232 and 1.538 | GoB hCB1 (hCB1 [1]; Log [Compound] (M) -13): 0.8707 and 1.266 | pEC50 [95% CI] (hCB1 [1]; hCB1 Gi1): 6.1 [6.0 – 6.1] | Emax [95% CI] (hCB1 [1]; hCB1 Gi1): 74 [70 – 74] | pEC50 [95% CI] (hCB1 [1]; hCB1 GoB): 6.1 [6.0 – 6.2] | Emax [95% CI] (hCB1 [1]; hCB1 GoB): 71 [67 – 75] | pEC50 [95% CI] (hCB1 [1]; hCB1 Gz): 5.9 [5.4 – 6.3] | Emax [95% CI] (hCB1 [1]; hCB1 Gz): 144 [113 –175] | EC50 (hCB1 [1]; hCB1 Gi1): 814 nM | EC50 (hCB1 [1]; hCB1 GoB): 801 nM | EC50 (hCB1 [1]; hCB1 Gz): 1400 nM | % 1H-CP-55,940 displacement (mean) from single point screen (CB1 (rCB1)): 33.86% | response, replicate values of concentration-response curve (FigS7f) (hCB1 [2]; Log[drug], M = -4.52): 24.852 and -9.474 and 31.57 and 49.261 and 34.9163 and 58.51 and 43.3772 and 13.5605 and 34.2635 and 143.166 and 149.946 and 121.258 | response, replicate values of concentration-response curve (FigS7f) (hCB1 [2]; Log[drug], M = -5): -6.393 and 4.812 and 50.5074 and 20.7309 and 18.1964 and 30.378 and 30.3734 and 43.3772 and 17.784 and 37.7997 and 110.741 and 29.9442 | response at Log[drug], M -5 (FigS4e) (hCB1 [2]; Log[drug], M = -5, individual replicates): 7.472 and 8.685 and 7.884 and 5.743 and 2.852 and 6.706 and 6.083 and 7.677 and 9.73 and 9.693 and 11.3624 and 13.6983 | response, replicate values of concentration-response curve (FigS7f) (hCB1 [2]; Log[drug], M = -5.52): -20.324 and 14.103 and 31.5067 and 7.169 and 19.8684 and 6.1872 and -9.345 and -6.435 and -28.1989 and 72.0832 and 46.8763 and 64.173 | response at Log[drug], M -5.52 (FigS4e) (hCB1 [2]; Log[drug], M = -5.52, individual replicates): 17.6293 and 13.3704 and 15.7552 and 17.3388 and 7.111 and 7.22 and 6.777 and 6.548 and 14.8053 and 14.1767 and 12.0847 and 15.6871 | response, replicate values of concentration-response curve (FigS7f) (hCB1 [2]; Log[drug], M = -6): -1.057 and 19.693 and 21.3155 and 18.7272 and -21.0026 and 10.5662 and 17.0767 and 0.7084 and 10.105 and 46.129 and 8.583 and -11.9397 | response at Log[drug], M -6 (FigS4e) (hCB1 [2]; Log[drug], M = -6, individual replicates): 17.4137 and 13.2205 and 12.7098 and 18.5288 and 2.8 and 2.042 and 0.7471 and 2.0116 and 5.809 and 8.098 and 10.8652 and 9.299 | response, replicate values of concentration-response curve (FigS7f) (hCB1 [2]; Log[drug], M = -6.52): 16.7142 and -12.7567 and -9.207 and 42.4801 and 2.591 and -9.299 and -1.706 and 6.518 and 3.588 and 25.7157 and 29.853 and 20.7035 | response at Log[drug], M -6.52 (FigS4e) (hCB1 [2]; Log[drug], M = -6.52, individual replicates): 5.804 and 6.685 and 5.518 and 6.338 and -2.975 and -1.665 and -2.183 and -3.091 and 1.981 and 0.8276 and 5.1991 and 1.175 | response, replicate values of concentration-response curve (FigS7f) (hCB1 [2]; Log[drug], M = -7): 11.1876 and 2.403 and 33.2939 and -14.3677 and -5.119 and -14.8322 and -4.192 and -26.8955 and -17.9232 and -30.0748 and 5.375 and 20.4665 | response at Log[drug], M -7 (FigS4e) (hCB1 [2]; Log[drug], M = -7, individual replicates): 8.629 and 6.746 and 5.86 and 10.4703 and -2.0219 and -2.877 and 1.224 and -2.078 and 2.76 and 0.06777 and 1.494 and 1.231 | response, replicate values of concentration-response curve (FigS7f) (hCB1 [2]; Log[drug], M = -7.52): -4.594 and -7.623 and -10.5004 and 2.14 and -6.485 and 4.329 and -8.365 and -9.244 and -13.1441 and 57.083 and -23.4769 and -26.8306 | response at Log[drug], M -7.52 (FigS4e) (hCB1 [2]; Log[drug], M = -7.52, individual replicates): 7.402 and 10.1376 and 9.341 and 5.865 and -1.189 and -1.594 and -1.932 and -1.59 and 2.357 and 3.37 and 0.3773 and 1.259 | response at Log[drug], M -8 (FigS4e) (hCB1 [2]; Log[drug], M = -8, individual replicates): 5.148 and 6.741 and 11.0794 and 7.462 and -3.208 and -1.519 and -1.219 and -1.073 and 3.632 and 3.698 and 2.085 and 1.362 | response at Log[drug], M -8.52 (FigS4e) (hCB1 [2]; Log[drug], M = -8.52, individual replicates): 6.619 and 9.146 and 5.084 and 9.668 and -0.1198 and -1.382 and -2.75 and -0.9228 and 3.28 and -0.4583 and 7.234 and 5.093 | response at Log[drug], M -9 (FigS4e) (hCB1 [2]; Log[drug], M = -9, individual replicates): 7.852 and 7.417 and 8.056 and 9.08 and -2.328 and -1.287 and -1.685 and -1.328 and 7.254 and 4.304 and 5.943 and 1.774 | response, replicate values of concentration-response curve (FigS7f) (hCB1 [2]; Log[drug], M = -9.52): 6.738 and -6.178 and -20.755 and -11.5014 | response at Log[drug], M -9.52 (FigS4e) (hCB1 [2]; Log[drug], M = -9.52, individual replicates): 9.847 and 11.0284 and 11.6628 and 8.737 and -1.263 and 0.9084 and -0.5418 and -0.1936 and 4.704 and 2.799 and 4.5399 and 1.57 | response, replicate values of concentration-response curve (FigS7f) (hCB1 [2]; Log[drug], M = -10): 28.4645 and -14.1129 and -6.736 and 44.2981 and 21.9252 and 39.0432 and 53.2891 and 13.6717 and 41.3867 and -34.1393 and -0.001553 and -21.0711 | response at Log[drug], M -10 (FigS4e) (hCB1 [2]; Log[drug], M = -10, individual replicates): 10.788 and 9.1102 and 5.959 and 9.12 and -1.758 and -1.431 and -1.611 and -0.8081 and 3.28 and 4.704 and 4.745 and 3.311 | response at Log[drug], M -10.52 (FigS4e) (hCB1 [2]; Log[drug], M = -10.52, individual replicates): 6.358 and 9.064 and 8.9107 and 9.172 and 1.265 and 0.1792 and -0.6688 and 1.04 and 3.157 and 2.819 and 2.153 and 4.1507 | response at Log[drug], M -11 (FigS4e) (hCB1 [2]; Log[drug], M = -11, individual replicates): 2.256 and 6.798 and 9.796 and 5.744 and -1.353 and -1.763 and 1.556 and -0.804 and 2.6758 and 2.932 and 3.905 and 1.57 | response at Log[drug], M -11.52 (FigS4e) (hCB1 [2]; Log[drug], M = -11.52, individual replicates): 2.281 and 3.903 and 3.253 and 1.1509 and 1.314 and 0.9699 and 1.212 and 0.552 and 3.905 and 2.9421 and 2.881 and 4.816 | response at Log[drug], M -12 (FigS4e) (hCB1 [2]; Log[drug], M = -12, individual replicates): 1.069 and -1.289 and -0.4859 and 0.7059 and -0.1854 and 0.7118 and -1.111 and 0.5848 and 1.078 and -0.868 and 0.4635 and -0.6734 | EC50 (hCB1 [2]; hCB1, read-out: Tango ß-arrestin recruitment EC50): > 10000 nM
